Like-named read-outs stand apart in the source and are kept apart here.
Assays:
Pseudomonas aeruginosa = experiment: Murine model of systemic infection, intraperitoneal; settings: 1 mg/Kg NTBC daily
B. cenocepacia C5424 = type: cell-based, Burkholderia cenocepacia; settings: 24 h culture, OD597

Compound: O=C1CCCC(=O)C1C(=O)c1ccc(C(F)(F)F)cc1[N+](=O)[O-] [NTBC, 2-(2-nitro-4-trifluoromethylbenzoyl)-1,3-cyclohexanedione]
- time to return to normal growth (weight) after administration (Pseudomonas aeruginosa): ≤ 24 h
- survival rate versus infected untreated mice (Pseudomonas aeruginosa; 3.2×10^8 CFU P. aeruginosa): three-fold higher survival rate
- pigment production relative to untreated C5424 (B. cenocepacia C5424; 10 μM NTBC): 31.95±3.96%
- pigment production relative to untreated C5424 (B. cenocepacia C5424; 100 μM NTBC): 26.89±0.59%
